Laboratory results reported in patent publication US20250049787A1, “TREATMENT FOR ACUTE MYELOID LEUKEMIA OR LYMPHOMA” (UNIVERSITY HEALTH NETWORK, priority 2021, published 2025).
Structures can show the parent of a compound that is named as a salt.

Tests used:
MOLT-4 = experiment: Growth inhibition, Alamar Blue; assay type: cell-based; settings: Homo sapiens, 72 h; MOLT-4, T-ALL; 3 days
Procedure: (§1) Cell lines were obtained from American Type Culture Collection (ATCC) and maintained according to the supplier's instructions, and from Dr. Mark Minden (Princess Margaret Cancer Centre, Toronto, Canada). Short tandem repeat (STR) profiling was used to verify authenticity of the cell lines. Peripheral blood from healthy human donors was obtained from the Hematology Malignancy Tissue Bank at the University Health Network. Peripheral blood mononuclear cells (PBMC) were prepared from the blood by density gradient centrifugation using Ficoll-Paque PLUS by manufacturer's instructions (GE Healthcare Life Sciences). […] Compound (I) tartrate was prepared as a 10 mM stock solution in 100% DMSO. The stock solution was diluted with RPMI-1640 (Invitrogen) containing 10% FBS (fetal bovine serum) such that the final concentrations ranged from 300 fM to 300 μM. Aliquots (20 μL) from each concentration were overlaid to 180 μL of pre-seeded cells to achieve final concentrations of 30 fM to 30 μM. After 3 days, cell growth in each well was assessed by Alamar Blue assay reagent (Invitrogen). Raw fluorescence (λEM=590 nm) values were adjusted by subtracting the average of the baseline readings from untreated cells assessed one day after cell seeding. Relative cell growth was calculated by comparing to DMSO-treated cells. The concentrations at which cell growth was inhibited by 50% (growth inhibition IC50) were calculated using GraphPad PRISM software (GraphPad Software Inc.).

MV-4-11 = experiment: Growth inhibition, Alamar Blue; assay type: cell-based; settings: Homo sapiens, MV4-11, 72 h; MV-4-11, AML M5; FLT3 ITD, protein expressed; 3 days
Procedure: as §1

THP-1 = experiment: Growth inhibition, Alamar Blue; assay type: cell-based; settings: Homo sapiens, 72 h; THP-1, AML M5; FLT3 wild-type, protein expressed; 3 days
Procedure: as §1

[1] = system: PARP cleavage (apoptotic cell death); experiment: Immunoblot of PARP cleavage in MV-4-11 cells; assay type: cell-based, human; settings: 4 hours
Procedure: MV-4-11 cells (FLT3 LOH, FLT3-ITD positive cells) were treated with the indicated concentrations of Compound (I) tartrate for 4 hours at 37° C. and 5% CO2. Lysates were analyzed by immunoblot analysis with antibodies against FLT3 (Cell Signaling Technology, Inc., Cat. #3462), PARP (Cell Signaling Technology, Inc., Cat. #9542) and GAPDH (Millipore, Cat. #MAB374). Protein bands were visualized using a LI-COR Odyssey near infrared imager and representative data are shown. Compound (I) tartrate treatment increases the expression of the mature 160 kDa form of FLT3-ITD in MV-4-11 cells in a dose-dependent manner. Apoptotic cell death as measured by PARP cleavage was induced by Compound (I) tartrate treatment.

FLT3-ITD maturation = FLT3-ITD maturation in MOLM-14 cells; assay type: cell-based, human; settings: MOLM-14 cells (co-express FLT3-ITD and wild-type FLT3); data not shown
cell surface FLT3-ITD [2] = experiment: Flow cytometry, cell surface FLT3-ITD in MV-4-11 cells; assay type: cell-based, human; settings: 100 nM, 4 hours
Procedure: MV-4-11 cells were treated with 100 nM Compound (I) tartrate or DMSO control for 4 hours at 37° C. and 5% CO2 and stained with PE-FLT3 (Beckman Coulter, Cat. IM2234U) or an isotype control antibody and analyzed on a BD LSRFortessa II flow cytometry analyzer. Data were analyzed using FlowJo software and representative data are shown. […] Compound (I) tartrate treatment increases the cell surface expression of FLT3-ITD in MV-4-11 cells.

[3] = system: SLP-76 Ser376 phosphorylation; experiment: Phospho-SLP-76 (Ser376) sandwich ELISA in anti-CD3 stimulated Jurkat E6.1 cells; assay type: cell-based; settings: Homo sapiens, 3 hours pretreatment, anti-CD3 (OKT3) 5 μg/mL 15 minutes
Procedure: Jurkat E6.1 cells were starved overnight in RPMI-1640 medium (Invitrogen) without fetal bovine serum (FBS). Starved cells (2×10^6 per sample in 1 mL) were pretreated with Compound (I) tartrate for 3 hours and then stimulated with 5 μg/mL anti-CD3 antibody (clone OKT3) for 15 minutes. Cells were immediately lysed in cell lysis buffer plus protease and phosphatase inhibitors, and then assayed for SLP-76 Ser376 phosphorylation with the PathScan Phospho-SLP-76 (Ser376) Sandwich ELISA Kit according to the kit instructions (Cell Signaling Technology, Inc.). Duplicate data points for each concentration were collected (Molecular Devices M5). Raw absorbance (A=450 nm) values were background subtracted and then individual values were averaged for each Compound (I) tartrate concentration. The cellular EC50 was determined using a simple one-site dose-response curve fitting model (XLfit4, IDBS).

cell surface FLT3-ITD [4] = experiment: Flow cytometry, cell surface FLT3 in primary human AML cells; assay type: cell-based; settings: FLT3-ITD positive primary AML cells, viable CD14− blasts, 48 and 72 hours, dose-dependent
Procedure: Patient samples were obtained from Dr. Mark Minden (Princess Margaret Cancer Centre, Toronto, Ontario, Canada). FLT3-ITD positive AML cells were treated with the indicated concentrations of Compound (I) for 48 and 72 hours at 37° C. and 5% CO2 and stained with APC-CD45, PECy7-CD38, APC/Fire 750-CD33, PerCP-CD14, PE-FLT3 (Beckman Coulter, Cat. IM2234U), PE/Dazzle 594-CD117 (BioLegend, Cat. #313226) or isotype control antibodies and analyzed on a BD LSRFortessa II flow cytometry analyzer. Data were analyzed using FlowJo software and representative data are shown. Compound (I) treatment increases the cell surface expression of FLT3 and c-KIT in a dose-dependent manner in viable CD14^− AML blast cells. Similar results were obtained in additional FLT3-ITD positive primary AML samples (data not shown).

MV-4-11 xenografts = experiment: MV-4-11 xenograft model of human AML in CD-1 Nude mice; assay type: in vivo; settings: for tumor status after 10 days of treatment: established MV-4-11 xenografts
Procedure: Female 8- to 10-week-old CD-1 Nude mice (Charles River Laboratories) with established MV-4-11 xenografts were treated for 21 days (n=8). MV-4-11 cells is a human AML cell line which endogenously expresses a Fms Related Receptor Tyrosine Kinase 3 (FLT3) internal tandem duplication (ITD) mutation. Animal weights were monitored daily, and tumor volume was measured three times per week. Tumor volume (mm^3) was defined as follows, length×width^2/2. Percentage tumor growth inhibition (% TGI) was defined as follows, 100×[1−(TVf,treated−TVi,treated)/(TVf,control−TVi,control)], where TVf is the average tumor volume at the end of study, and TVi is the average tumor volume at the initiation of treatment. In cases where tumor regression occurred, percentage tumor regression was defined as follows, 100×[1−(TVf,treated/TVi,treated)]. At the completion of the study, the mice were sacrificed by an anesthetic overdose. The Institutional Animal Care and Use Committee of the University Health Network approved all animal procedures. […] Data are represented as mean±SEM. p values were calculated using Student's/test.

## CN1CCN(c2ccc3nc(-c4c(N)c5ccsc5[nH]c4=O)[nH]c3c2)CC1 [Compound (I) tartrate, 4-amino-5-(6-(4-methylpiperazin-1-yl)-1H-benzo[d]imidazol-2-yl)thieno[2,3-b]pyridin-6(7H)-one]
MOLT-4
  IC50: 1600 nM
MV-4-11
  IC50: 3.7 nM
THP-1
  IC50: 1300 nM
[1]
  apoptotic cell death as measured by PARP cleavage: induced
FLT3-ITD maturation
  FLT3-ITD maturation: increase
Cell surface FLT3-ITD [2]
  cell surface expression of FLT3-ITD: increases
[3]
  EC50: 24 nM
Cell surface FLT3-ITD [4]
  cell surface expression of FLT3: increases
MV-4-11 xenografts; 50 mg/kg orally QD
  tumor status after 10 days of treatment: tumors were undetectable
MV-4-11 xenografts; 50 mg/kg, large tumors (≅900 mm^3)
  effect on large tumors after 7 days of treatment: complete tumor regression
MV-4-11 xenografts; 150 mg/kg orally QD
  tumor status after 10 days of treatment: tumors were undetectable
MV-4-11 xenografts; CD-1 Nude mice, 21 days treatment
  tolerability (body weight and behavior): well tolerated
